# Assay results from PMC3175280 (Neurochemistry international, 2011).
# “And” between values parts separate entries of the source, which are not always exact repeats. Equal entries are not always repeated.
# Legend:
# [1] = biological target: T1, S299Cα1β1γ2S GABAA receptors (Rattus norvegicus, UniProt P15431+P18508+P62813, S325C); assay: Substituted cysteine accessibility; type: cell-based; details: for reduction of subsequent ALLO induced current: 0.5 mM pCMBS added with 5 nM ALLO; for inhibition of subsequent ALLO induced current: 0.5 mM pCMBS added with 100 nM ALLO
# [2] = biological target: T1, S299Cα1β1γ2S GABAA receptors; assay: Steroid potentiation of submaximal GABA current, S299C receptors; type: cell-based; details: not shown for THDOC
# [3] = biological target: T2, wt α1β1γ2S GABAA receptors (Rattus norvegicus, UniProt P15431+P18508+P62813); type: cell-based; details: 0.5 μM ALLO, about EC30, n=3
# [4] = biological target: T1, S299Cα1β1γ2S GABAA receptors; assay: Extreme low dose assay; type: cell-based; details: for co-application current, scaled to the added currents = 1 / added separate currents, scaled: n=4; for difference between co-applied and added currents: not significant
# [5] = biological target: T1, S299Cα1β1γ2S GABAA receptors; assay: Steroid activation; type: cell-based; details: for current passed, % of 1 mM GABA current: representative trace; for first peak maximal current (curve fit), % of maximal (1 mM GABA) current: first (low concentration) peak of the bimodal dose response; for second peak maximal current (curve fit), % of maximal (1 mM GABA) current: second (high concentration) peak of the bimodal dose response
# [6] = biological target: T2, wt α1β1γ2S GABAA receptors; assay: Steroid activation; type: cell-based
# [7] = system: α1S299C containing GABAA receptors; details: ref Williams and Akabas 1999, 2000, 2002; cited from earlier work
# [8] = biological target: T1, S299Cα1β1γ2S GABAA receptors; assay: Blocking ALLO-induced current with isoallopregnanolone; type: cell-based
# [9] = biological target: T1, S299Cα1β1γ2S GABAA receptors; assay: P4S dose response curve, S299C receptors; type: cell-based
# [10] = biological target: wild type α1β1γ2S GABAA receptors (Rattus norvegicus, UniProt P15431+P18508+P62813); assay: P4S dose response curve, wild type receptors; type: cell-based
# [11] = system: α1S299C containing GABAA receptors; details: preliminary dose response (not shown)
# [12] = biological target: T2, wt α1β1γ2S GABAA receptors; assay: SCAM with pCMBS on ALLO-induced currents, wt receptors; type: cell-based; details: pCMBS added in any concentration of ALLO (not shown)
# [13] = biological target: T1, S299Cα1β1γ2S GABAA receptors; details: pCMBS added in the presence of GABA; ref Williams and Akabas 1999; cited from earlier work
# [14] = biological target: T1, S299Cα1β1γ2S GABAA receptors; assay: Blocking ALLO-induced current with picrotoxin; type: cell-based; details: 1 mM PTN co-applied with 5 nM ALLO
# T2 sequence (P62813 28-455): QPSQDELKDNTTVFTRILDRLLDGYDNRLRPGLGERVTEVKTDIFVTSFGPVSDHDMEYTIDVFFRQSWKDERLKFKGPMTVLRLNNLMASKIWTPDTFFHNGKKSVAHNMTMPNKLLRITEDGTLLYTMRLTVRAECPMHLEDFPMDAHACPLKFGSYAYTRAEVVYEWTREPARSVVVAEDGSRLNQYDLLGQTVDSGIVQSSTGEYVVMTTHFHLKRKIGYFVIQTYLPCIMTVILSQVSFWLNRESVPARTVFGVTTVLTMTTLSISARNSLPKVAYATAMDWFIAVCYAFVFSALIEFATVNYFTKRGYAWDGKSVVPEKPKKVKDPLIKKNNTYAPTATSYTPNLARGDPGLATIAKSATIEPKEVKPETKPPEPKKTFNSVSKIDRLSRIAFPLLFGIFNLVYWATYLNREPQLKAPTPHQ
# T2 sequence (P15431 26-474): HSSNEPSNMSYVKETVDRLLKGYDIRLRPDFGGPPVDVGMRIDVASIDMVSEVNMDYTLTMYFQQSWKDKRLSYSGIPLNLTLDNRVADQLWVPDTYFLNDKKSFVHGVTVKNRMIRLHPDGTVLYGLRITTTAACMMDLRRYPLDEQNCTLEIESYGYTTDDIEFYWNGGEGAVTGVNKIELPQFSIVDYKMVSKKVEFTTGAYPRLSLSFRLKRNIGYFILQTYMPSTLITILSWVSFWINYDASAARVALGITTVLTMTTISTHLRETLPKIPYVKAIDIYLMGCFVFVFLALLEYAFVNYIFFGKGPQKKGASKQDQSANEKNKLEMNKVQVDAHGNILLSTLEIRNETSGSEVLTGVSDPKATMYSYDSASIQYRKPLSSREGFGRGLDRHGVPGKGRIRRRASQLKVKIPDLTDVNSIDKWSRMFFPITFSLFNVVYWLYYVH
# T2 sequence (P18508 39-466): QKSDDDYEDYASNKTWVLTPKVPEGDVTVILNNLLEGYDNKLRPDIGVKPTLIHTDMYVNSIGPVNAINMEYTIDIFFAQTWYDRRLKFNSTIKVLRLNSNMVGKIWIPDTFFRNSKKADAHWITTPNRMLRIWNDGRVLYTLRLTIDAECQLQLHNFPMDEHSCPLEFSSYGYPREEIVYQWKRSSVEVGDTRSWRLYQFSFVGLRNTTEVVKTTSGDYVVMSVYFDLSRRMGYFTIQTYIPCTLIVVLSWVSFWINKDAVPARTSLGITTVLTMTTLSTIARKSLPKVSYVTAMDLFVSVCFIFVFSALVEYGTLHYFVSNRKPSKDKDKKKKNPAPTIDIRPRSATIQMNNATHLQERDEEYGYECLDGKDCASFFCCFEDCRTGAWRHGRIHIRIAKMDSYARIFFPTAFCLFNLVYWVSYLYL
# T1 sequence (P62813 28-455 S325C): as the sequence (P62813 28-455) above, with S298C counted along it
# T1 sequence (P15431 26-474): as the sequence (P15431 26-474) above
# T1 sequence (P18508 39-466): as the sequence (P18508 39-466) above
# Chain of wild type α1β1γ2S GABAA receptors (P62813 28-455): as the sequence (P62813 28-455) above
# Chain of wild type α1β1γ2S GABAA receptors (P15431 26-474): as the sequence (P15431 26-474) above
# Chain of wild type α1β1γ2S GABAA receptors (P18508 39-466): as the sequence (P18508 39-466) above
molecule,measurement,setting,value
"C[C@]12CC[C@@H](O)C[C@@H]1CC[C@@H]1[C@@H]2CC[C@]2(C)C(c3ccccc3)=CC[C@@H]12 [17-PA, (3α,5α)-17-phenylandrost-16-en-3-ol]",percent change of 100 nM ALLO induced current,"[1]; 1 μM 17-PA added with pCMBS, subsequent 100 nM ALLO current",−4 ± 8%
"CC(=O)[C@H]1CC[C@H]2[C@@H]3CC[C@H]4C[C@H](O)CC[C@]4(C)[C@H]3CC[C@]12C [ALLO, 3α-hydroxy-5α-pregnan-20-one]",potentiation of submaximal GABA current,[2],no significant potentiation
same,"potentiation, percent increase of 1 μM GABA current",[3],120 ± 28%
same,"co-application current, scaled to the added currents = 1",[4]; 100 pM ALLO + 100 nM GABA co-applied,1.21 ± 0.45
same,"added separate currents, scaled",[4]; 100 pM ALLO alone plus 100 nM GABA alone,1.0 ± 0.35
same,"co-application current, scaled to the added currents = 1",[4]; 5 nM ALLO + 100 nM GABA co-applied,1.27 ± 0.39
same,"added separate currents, scaled",[4]; 5 nM ALLO alone plus 100 nM GABA alone,1.0 ± 0.21
same,difference between co-applied and added currents,[4]; 100 nM GABA and 100 pM ALLO,20%
same,difference between co-applied and added currents,[4]; 100 nM GABA and 5 nM ALLO,27%
same,"inward current, % of 1 mM GABA current","[5]; 50 pM steroid, no GABA, n=4",6 ± 4%
same,"current passed, % of 1 mM GABA current",[5]; 5 nM steroid,approximately 50%
same,"current passed, % of 1 mM GABA current",[5]; 100 nM steroid,approximately 50%
same,EC50,"[5]; EC50, first activation curve, first plateau to valley fit as a separate curve",0.59 nM
same,EC50,"[5]; EC50, second activation curve, second plateau to valley fit as a separate curve",70 nM
same,"first peak maximal current (curve fit), % of maximal (1 mM GABA) current",[5],58 ± 0.25%
same,"second peak maximal current (curve fit), % of maximal (1 mM GABA) current",[5],42 ± 0.26%
same,EC50,[6],870 nM
same,"maximal steroid induced current, % of 1 mM GABA current","[6]; wt receptors, steroid alone, −60 mV",about 43 ± 15%
NCCCC(=O)O [GABA],response of α1S299C containing receptors compared with wild type,[7],near wild type
"CC(=O)[C@H]1CC[C@H]2[C@@H]3CC[C@H]4C[C@@H](O)CC[C@]4(C)[C@H]3CC[C@]12C [ISO, 3β-hydroxy-5α-pregnan-20-one]",block of ALLO induced current,"[8]; 5 nM ISO, 5 nM ALLO",90 ± 5% and 80–85%
same,block of ALLO induced current,"[8]; 5 nM ISO, 100 nM ALLO",86 ± 8% and 80–85%
same,block of ALLO induced current,"[8]; 100 nM ISO, 5 nM ALLO",73 ± 4%
"O=S(=O)(O)C1CCNCC1 [P4S, Piperidine-4-sulfonic acid]",Kd,[9],90000 ± 18000 nM
same,"maximal current induced, % of 1 mM GABA current","[9]; S299C, n of 3",58 ± 1.6%
same,Kd,[10],110000 ± 37000 nM
same,"maximal current induced, % of 1 mM GABA current","[10]; wt, n of 3",61 ± 3.7%
"C[C@]12CC[C@@H](O)C[C@@H]1CC[C@@H]1[C@@H]2CC[C@]2(C)[C@@H](C(=O)CO)CC[C@@H]12 [THDOC, 3α,21-hydroxy-5α-pregnan-20-one]",potentiation of submaximal GABA current,[2],no significant potentiation
same,"current passed, % of 1 mM GABA current",[5]; 1 nM steroid,more than 50%
same,"current passed, % of 1 mM GABA current",[5]; 100 nM steroid,approximately 50%
same,"first peak maximal current (curve fit), % of maximal (1 mM GABA) current",[5],57 ± 5.3%
same,"second peak maximal current (curve fit), % of maximal (1 mM GABA) current",[5],48 ± 0.35%
"CCO [ethanol, Ethanol]",shift of EC50 versus wt,[11],shift to a higher EC50
"O=S(=O)(O)c1cc[c]([Hg][Cl])cc1 [pCMBS^−, para-chloromercuribenzenesulfonic acid]",effect on subsequent ALLO induced currents,[12],did not affect
same,reduction of subsequent ALLO induced current,[1]; subsequent 5 nM ALLO current,28 ± 8%
same,reduction of subsequent ALLO induced current,[1]; subsequent 100 nM ALLO current,22 ± 20%
same,inhibition of subsequent ALLO induced current,[1]; subsequent 5 nM ALLO current,63 ± 15%
same,inhibition of subsequent ALLO induced current,[1]; subsequent 100 nM ALLO current,63 ± 15%
same,decrease of ALLO current during co-application,[1]; 0.5 mM pCMBS applied simultaneously with 5 nM ALLO,7 ± 29%
same,reduction of ALLO current during co-application,[1]; 0.5 mM pCMBS co-applied with 100 nM ALLO,62 ± 17%
same,percent difference in subsequent ALLO current,"[1]; pCMBS added with 1 μM ISO, subsequent 100 nM ALLO current",−71 ± 10%
same,percent difference in subsequent ALLO current,"[1]; pCMBS co-applied with 100 nM ISO, subsequent 5 nM ALLO current",3 ± 14%
same,effect on subsequent ALLO currents,"[1]; pCMBS plus 5 nM ISO, subsequent 5 nM or 100 nM ALLO currents (not shown)",did not affect
same,accessibility of S299C to modification,[13],not accessible to be modified
CC(C)c1cccc(C(C)C)c1O [propofol],response of α1S299C containing receptors compared with wild type,[7],near wild type
Picrotoxin [PTN],block of ALLO induced current,[14],80 ± 20% and ~80%
